SMILES strings stand for the structures. Where two headings read alike, the source gives them in different places.

The source of these data is PMC11489250, “Optimized methods for measuring competitive binding of chemical substances to thyroid hormone distributor proteins transthyretin and thyroxine binding globulin” (Archives of Toxicology, 2024).

The target of experiment [1] is T1, Human TTR (Homo sapiens, UniProt P02766).
T1 construct: Transthyretin (prealbumin, TTR) >95% from human plasma; purchased Sigma Aldrich (Zwijndrecht, The Netherlands); host or cells: human plasma
The experiment in a line: Optimized competitive TTR-binding assay with FITC-T4 (fluorescence intensity readout). The settings on record: for IC20: read-out: TTR IC20; for T4EQ concentration (TTR binding): T4EQi = highest human blood concentration x T4-REPi; for Contribution to T4EQ concentration (TTR binding): mixture of highest human blood concentrations of five model compounds. The protocol: All TTR-binding experiments were performed in black 96-well polystyrene nonbinding plates. Experimental wells and background wells were prepared in triplicate per plate. […] Fluorescence intensity (FI) was measured at λex = 485 ± 20 nm and λem = 528 ± 20 nm (CLARIOstar Plus microplate reader, BMG LABTECH).
To test the effect of the change in temperature and incubation time, a saturation experiment (N = 3, n = 3) was performed in Tris–HCl buffer (0.1 M Tris (Thermo Scientific, Rockford, USA), 0.1 M NaCl (Merck KGaA, Darmstadt, Germany), 1 mM EDTA (VWR International, B.V. Amsterdam, The Netherlands); pH 8.0). […] Two 96-well plates were prepared at the same time. After shaking for 5 min on a plate shaker, one prepared plate was incubated on ice (at 4 °C) and another plate was incubated at room temperature (22 °C). For both plates the fluorescence was measured at different time points: 5 min, 15 min, 60 min and 120 min.
First, 48 µL Tris–HCl buffer (pH 8.0) was pipetted to the wells, followed by 2 µL of the compound (in DMSO). […] Final solvent (DMSO) concentrations in all conditions amounted to 1%. All plates were shaken for 5 min on a plate shaker, followed by an incubation for 15 min at room temperature. The standard operation procedure (SOP) is provided in Supplementary Information file (Section 3).
Calculations of the ICX, Kd and Ki values of TTR-binding assays are described in the Supplementary Information file (Section 3).
3.7.5 The competitive TTR binding screening assay
3.7.8 Processing data to determine IC50 and calculate Ki value

The target in experiment [2] is T2, thyroxine-binding globulin (TBG) (Homo sapiens, UniProt P05543).
T2 construct: purchased Bio-rad Laboratories, Inc. (Veenendaal, The Netherlands)
T2 sequence (P05543 21-415): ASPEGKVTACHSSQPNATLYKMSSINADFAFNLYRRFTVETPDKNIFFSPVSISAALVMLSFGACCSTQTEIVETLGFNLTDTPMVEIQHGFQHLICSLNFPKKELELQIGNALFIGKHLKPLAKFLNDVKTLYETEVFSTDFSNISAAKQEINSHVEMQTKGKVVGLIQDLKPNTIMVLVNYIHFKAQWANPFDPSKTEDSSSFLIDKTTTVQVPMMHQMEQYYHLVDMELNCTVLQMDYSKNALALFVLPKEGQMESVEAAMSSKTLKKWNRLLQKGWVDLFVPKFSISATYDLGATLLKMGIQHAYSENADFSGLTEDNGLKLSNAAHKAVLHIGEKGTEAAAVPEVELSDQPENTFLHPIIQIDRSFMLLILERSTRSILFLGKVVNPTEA
The experiment in a line: Competitive TBG-binding assay with FITC-T4 (fluorescence polarization readout). The settings on record: for Ki / IC50 / IC20 / inhibition of the FITC-T4 binding to TBG (in words): RT. The protocol: Prepared plates were first shaken for 5 min and then incubated for 15 min at room temperature before being analysed by the microplate reader at FP mode (CLARIOstar Plus, BMG LABTECH).
Accordingly, dilution series of all compounds were prepared in DMSO. First, 24 µL Tris–HCl buffer was pipetted to the wells, followed by 1 µL of the compound stock solution. […] Solvent (DMSO) concentrations in all conditions were 1%. The plates were shaken for 5 min on a plate shaker, followed by an incubation for 15 min at room temperature.
The adjusted polarization was set to a reference value of 35 mP. The adjustment gain values ranged from 1900 to 2200. The plate layout of TBG-binding assay is provided in Supplementary Information file (Section 4).
For the competitive TBG-binding experiments, concentration–response curves were fitted:2 r=rmin+rmax-rmin/1+IC50/X^HillSlope with rmin and rmax being the minimum and maximum anisotropy values, respectively. X is the concentration of added competitor. Equations that were used for the calculation of the ICX and Ki values in the TTR-binding assays (Supplementary Information, Section 3) were also used to determine the ICX and Ki values in TBG-binding assays without any changes, respectively. The single Kd, IC20, IC50 and Ki were determined based on replicates (n) in each experiment, and then the average and confidence intervals were determined based on the Kd, IC20, IC50 and Ki values from sperate experiments (N).
Alternatively, another approach to determine ICX, Kd and Ki values based on a theoretical model of ligand–protein binding biochemistry was taken as described in detail in the Supplementary Information file (Section 5). For this approach, R was used to fit the model to the data. The results obtained from the two approaches were compared in Section 3.4.
S5.2 Ki and IC50 estimation

Experiment [3] deals with T1, Human TTR. The conditions noted are these: FITC-T4 110 nM, human TTR 30 nM, 4 °C, 2 h; ref Hamers et al. [2020]; read-out: TTR literature Ki; cited from earlier work.
Experiment [4] has as its system TTR. The conditions noted are these: ref Ren et al. [2020]; cited from earlier work.
Experiment [5] concerns TBG. The settings on record: highest tested concentration 100 µM with 100 nM TBG and 50 nM FITC-T4; ref Ren et al. [2020]; cited from earlier work.
The target in experiment [6] is TBG. The arrangement: method as in Ren et al. [2016]. The settings on record: ref Ren et al. [2016], cited from earlier work.
Experiment [7] concerns the target T2, thyroxine-binding globulin (TBG). The experiment can be described thus: Competitive TBG-binding assay with FITC-T4 (fluorescence polarization readout). The conditions noted are these: 37 °C, 15 min, preliminary temperature experiment (N = 2).
The target of experiment [8] is Recombinant TTR. Set-up: method as in Marchesini et al. [2006]. The conditions noted are these: T4 100 nM, recombinant TTR 18.2 nM, 25 °C, 10 min, ref Marchesini et al. [2006], cited from earlier work.
In experiment [9] the target is TBG. The arrangement: method as in Qi et al. [2011]. The conditions noted are these: ref Qi et al. [2011]; read-out: TBG literature Ki; cited from earlier work.
Experiment [10] concerns the target TBG. The arrangement: method as in Ren and Guo [2012]. The settings on record: ref Ren and Guo [2012]; read-out: TBG literature Ki; cited from earlier work.
Experiment [11] concerns the target TBG. Set-up: method as in Cao et al. [2010]. The settings on record: ref Cao et al. [2010]; read-out: TBG literature Ki; cited from earlier work.
In experiment [12] the test system is TBG. The arrangement: method as in Marchesini et al. [2008]. The settings on record: T4-coated chips and TBG; ref Marchesini et al. [2008]; read-out: TBG IC50 (SPR biosensor); cited from earlier work.
Setting [13] is: 110 nM FITC-T4, 30 nM TTR, RT, 15 min, average [95% CI].
Where [14] appears, read: 5 nM FITC-T4, 10 nM TBG, 15 min, derived from IC20, descriptive model (Graphpad), average [95% CI], read-out: TBG Ki.
[15] abbreviates: 5 nM FITC-T4, 10 nM TBG, 15 min, descriptive model (Graphpad), average [95% CI].
Where [16] appears, read: 5 nM FITC-T4, 10 nM TBG, 15 min, descriptive model (Graphpad), average [95% CI], read-out: TBG IC20.
The mark [17] stands for this setting: 5 nM FITC-T4, 10 nM TBG, theoretical model in R, average [95% CI], read-out: TBG IC20, theoretical model.
Setting [18] is: 5 nM FITC-T4, 10 nM TBG, theoretical model in R, average [95% CI], read-out: TBG Ki values, theoretical model.

Take `CC(C)(c1cc(Br)c(O)c(Br)c1)c1cc(Br)c(O)c(Br)c1` [TBBPA]: the IC20 in experiment [1] (setting [13]) stood at 12 nM; in [2] (setting [16]), 7300 nM; in [2] (setting [17]), 6420 nM. Besides, the IC50 in experiment [1] (110 nM FITC-T4, 30 nM TTR, RT, 15 min, average [95% CI], read-out: TTR IC50) worked out at 22 nM; in experiment [2] (setting [15]) it was 68100 nM. Besides, the Ki in [1] (110 nM FITC-T4, 30 nM TTR, RT, 15 min, derived from IC20, average [95% CI], read-out: TTR Ki) is 12 nM; in experiment [2] (setting [14]) it was 3760 nM; in [2] (setting [18]) it was 3310 nM; in [3], 17 nM. Moreover, the “T4EQ concentration (TTR binding)” value in [1] was determined as 3.73 nM. Moreover, in [1], the “Contribution to T4EQ concentration (TTR binding)” value is reported as 19.5%. Also, the “T4EQ concentration (TBG binding)” value in [2] (T4EQi = highest human blood concentration x T4-REPi) stood at 2 pM. Moreover, the “Contribution to T4EQ concentration (TBG binding)” value in experiment [2] (mixture of highest human blood concentrations of TBBPA, triclosan and BPA) is listed as 0.1%. For the same compound, in experiment [4], the “binding to TTR (in words)” value was “binding of TBBPA to TTR”. For the same compound, in experiment [5], the “binding to TBG (in words)” value was “not to TBG”.

Consider `OC[C@@H](O)[C@@H](O)[C@H](O)[C@H](O)CO` [D-mannitol], for which the “displacement of FITC-T4 from TTR (in words)” value in [1] (110 nM FITC-T4, 30 nM TTR, RT) is recorded as “Except for D-mannitol, all compounds displaced FITC-T4 from TTR”. Also, the “inhibition of the FITC-T4 binding to TBG (in words)” value in experiment [2] (5 nM FITC-T4, 10 nM TBG) is listed as “no inhibition”.

For `O=S(=O)(O)C(F)(F)C(F)(F)C(F)(F)C(F)(F)C(F)(F)C(F)(F)C(F)(F)C(F)(F)F` [PFOS, Perfluorooctanesulfonic acid], the “T4EQ concentration (TTR binding)” value in experiment [1] turned out to be 9.73 nM. Also, the IC50 is 271 nM in experiment [1] (TTR IC50, 110 nM FITC-T4, 30 nM TTR, RT, 15 min, average [95% CI]); 191 nM in experiment [1] (TTR IC50 [95% CI], 55 nM FITC-T4, 30 nM TTR, RT (5 min)); 189 nM in [1] (TTR IC50 [95% CI], 55 nM FITC-T4, 30 nM TTR, RT (15 min)); 196 nM in experiment [1] (TTR IC50 [95% CI], 55 nM FITC-T4, 30 nM TTR, RT (60 min)); 194 nM in experiment [1] (TTR IC50 [95% CI], 55 nM FITC-T4, 30 nM TTR, RT (120 min)); 179 nM in [1] (TTR IC50 [95% CI], 55 nM FITC-T4, 30 nM TTR, on ice (120 min)). Moreover, the Ki in experiment [1] (TTR Ki [95% CI], 55 nM FITC-T4, 30 nM TTR, RT (5 min)) is 143 nM; in [1] (TTR Ki [95% CI], 55 nM FITC-T4, 30 nM TTR, RT (15 min)) it was 133 nM; in experiment [1] (TTR Ki [95% CI], 55 nM FITC-T4, 30 nM TTR, RT (60 min)) it was 127 nM; in [1] (TTR Ki [95% CI], 55 nM FITC-T4, 30 nM TTR, RT (120 min)), 133 nM; in experiment [1] (TTR Ki [95% CI], 55 nM FITC-T4, 30 nM TTR, on ice (120 min)), 171 nM; in experiment [1] (TTR Ki, 110 nM FITC-T4, 30 nM TTR, RT, 15 min, derived from IC20, average [95% CI]) it was 243 nM. Besides, the Ki in experiment [3] is 160 nM. Also, in [1], the “Contribution to T4EQ concentration (TTR binding)” value was 50.9%. In experiment [1], the IC20 was 118 nM. The “inhibition of the FITC-T4 binding to TBG (in words)” value in experiment [2] (5 nM FITC-T4, 10 nM TBG) is “No (or only limited) inhibition”.

Consider `O=C(O)C(F)(F)C(F)(F)C(F)(F)C(F)(F)C(F)(F)C(F)(F)C(F)(F)C(F)(F)C(F)(F)C(F)(F)C(F)(F)C(F)(F)C(F)(F)F` [PFTdA, perfluorotetradecanoic acid], for which the Ki in [6] (read-out: TBG Ki) was 26600 nM.

`N[C@@H](Cc1cc(I)c(Oc2cc(I)c(O)c(I)c2)c(I)c1)C(=O)O` [T4, 3,3′,5,5′-tetraiodothyronine]: the IC20 turned out to be 25 nM in [1] (setting [13]), 9.2 nM in experiment [2] (setting [16]) and 5.9 nM in experiment [2] (setting [17]). In addition, the Ki in experiment [2] (setting [14]) was 2.5 nM; in [2] (setting [18]) it was 0.8 nM; in experiment [2] (15 min, preliminary temperature experiment (N = 2), read-out: TBG Ki), 2.9 nM; in experiment [7] it was 2.6 nM; in experiment [8] (read-out: TTR literature Ki) it was 13.7 ± 1.3 nM; in [9], 2.2 nM. The Ki in experiment [6] (N.D means not detected, read-out: TBG literature Ki) was 7 nM; in [10] it was 17 nM; in experiment [11], 0.6 nM. In addition, the results for the IC50 in experiment [2] (setting [15]) and in [12] were 14.9 nM and 17.2 nM, respectively. Also, in [8] (read-out: Determined Kd value of ligand with TTR), the Kd is 9.2 ± 1.2 nM.

Turning to `Oc1cc(Cl)ccc1Oc1ccc(Cl)cc1Cl` [Triclosan, triclosan], the IC20 was found to be 284 nM in experiment [2] (setting [16]) and 293 nM in experiment [2] (setting [17]).

In the case of `O=C(O)C(F)(F)C(F)(F)C(F)(F)C(F)(F)C(F)(F)C(F)(F)C(F)(F)C(F)(F)C(F)(F)C(F)(F)C(F)(F)C(F)(F)F` [PFTA, perfluorotridecanoic acid], the inhibition constant (Ki) in experiment [6] (read-out: TBG Ki) is 23000 nM.
